For orientation: EC50 means the midpoint of the concentration-response curve. Read a low EC50 as an effect from little substance. What is called IC50 is the point on the concentration scale where inhibition reaches its midpoint. Low values mean inhibition by little substance, high ones a need for much substance.

Structures are written as SMILES.

Data on 1 compound can be found in patent publication US20260297086A1, “CRYSTALLINE PROLYL HYDROXYLASE DOMAIN-CONTAINING PROTEIN (PHD) INHIBITOR AND USES THEREOF” (Insilico Medicine IP Limited, priority 2023, published 2026).

One experiment relates to HIF1α (Caco2 cells). Briefly: Caco2-HIF1α-HiBit assay. The conditions noted are these: Homo sapiens, Caco-2. The experiment is classed as cell-based. Background: HiBiT is a short tag that completes a luciferase, so light tracks the accessible tagged protein.
Another experiment has as its target PHD2 (Homo sapiens, UniProt Q9GZT9). In words: PHD2 Enzymatic Assay (AlphaScreen). The conditions noted are these: PHD2 enzyme, 30 min preincubation at RT. It counts as biochemical. On the procedure:
Example 1: PHD2 Enzymatic Assay Procedure
Compound DMSO stock preparation: Compound 1 was reconstituted into 20 mM stock by DMSO.
Compound storage: Compound 1 in DMSO was stored at RT in a desiccator for short-term storage (up to 3 months).
• Reference Roxadustat (FG-4592) was 3-fold serial diluted from 400 μM for 10 doses in DMSO. • The compounds were 3-fold serial diluted from 400 μM for 10 doses in DMSO. • Prepared 200× positive control (400 μM, FG-4592) and 200× vehicle control (100% DMSO). • Centrifuged compound plates at 1000 rpm for 1 min.
• a) Transferred 40 nl compound dilutions into each well of assay plates using Echo 655; • b) Sealed the assay plate and centrifuge compound plates at 1000 rpm for 1 min. • c) Prepared and add 4 μL of the 2×PHD2 enzyme working solution to individual well of the assay plate. • d) Sealed the assay plate and centrifuge compound plates at 1000 rpm for 1 min. […]
• ALPHASCREEN signal (ALPcmpd) is calculated for each well • % Inhibition is calculated as follow:
[formula] • ALPpositive: The average ALP for the positive controls across the plate. • ALPvehicle: The average ALP for the negative controls across the plate. • Calculate IC50 and Plot effect-dose curve of compounds: • Calculated IC50 by fitting % inhibition values and log of compound concentrations to nonlinear regression (dose response−variable slope) with Graphpad 8.0. […]
Background: Alpha assays give light when donor and acceptor beads are brought close together.

Chain of PHD2 (Q9GZT9 whole entry): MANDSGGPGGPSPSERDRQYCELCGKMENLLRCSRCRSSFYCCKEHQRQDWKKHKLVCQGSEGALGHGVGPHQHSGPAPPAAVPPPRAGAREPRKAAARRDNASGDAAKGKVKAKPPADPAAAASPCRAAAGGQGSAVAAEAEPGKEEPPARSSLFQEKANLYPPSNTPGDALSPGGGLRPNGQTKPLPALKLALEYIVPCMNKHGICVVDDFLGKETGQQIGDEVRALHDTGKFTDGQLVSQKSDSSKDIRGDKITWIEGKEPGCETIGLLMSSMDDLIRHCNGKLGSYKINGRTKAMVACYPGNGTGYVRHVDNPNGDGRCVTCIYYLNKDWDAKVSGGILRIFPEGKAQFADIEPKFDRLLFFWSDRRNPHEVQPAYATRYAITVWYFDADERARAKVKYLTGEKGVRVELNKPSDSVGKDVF

`CC(C)(C)OC(=O)N1CCN(c2ccc3c(O)c(C(=O)NCc4ccc(C#N)nc4)ncc3n2)CC1` [Compound 1, tert-butyl 4-(6-(((6-cyanopyridin-3-yl)methyl)carbamoyl)-5-hydroxy-1,7-naphthyridin-2-yl)piperazine-1-carboxylate]: the EC50 in the experiment on HIF1α (Caco2 cells) was below 2.5 µM. Further, the IC50 at PHD2 was below 0.005 µM.
